# Laboratory results taken from US20250282871A1, “PHARMACEUTICAL COMBINATION AND USE THEREOF” (TIANJIN LIPOGEN TECHNOLOGY CO., LTD, priority 2021, published 2025).
# Key:
# [1] = test system: colorectal carcinoma MC38; assay: Example 1: subcutaneous xenograft tumor model of colorectal carcinoma MC38 in mice, RB0005 and 2′,3′-cGAMP; format: in vivo, mouse
# Experimental: C57/BL6JNifdc mouse, female, body weight of 17-22 g, aged 6-8 weeks, SPF grade, purchased from Beijing Vital River Laboratory Animal Technology Co., Ltd. [Experimental Animal Quality Certificate No.: SCXK (Beijing) 2016-0006].
# (§1) Tumor cells were cultured and passaged, cells were collected at the logarithmic phase, and formulated into a concentration of (1.0×10^7) per milliliter of cell suspension with 0.1 ml (with a cell number of 1.0×10^6) being injected into the right flank of the mice, the tumor grew to a diameter of about 5 mm within about 10 days, and the model was successfully established, they were randomly divided into 8 groups with 8 mice per group.
# (§2) Trend of changes in body weight and tumor volume of mice, survival rate of mice, and inhibitory rate of anatomical tumor weight.
# (§3) Drug interaction coefficient: CDI(CI)=AB/A*B. AB is the ratio of the combination group of two drugs to the control group, as calculated based on the anatomical tumor weight. A or B is the ratio of single drug group to control group.
# After successfully establishing a subcutaneous xenograft tumor model of colorectal carcinoma MC38 in mice, it was randomly grouped with 6-8 mice per group. The mice were administered once every two days, with a total of three times followed by observation until 15 days.
# [2] = test system: colorectal carcinoma MC38; assay: Example 2: humanized PD-1 subcutaneous xenograft tumor model of colorectal carcinoma MC38, RB0004 and 2′,3′-cGAMP; format: in vivo, mouse; settings: 2′,3′-cGAMP 3 mg/kg i.t.; RB0004 10 mg/kg i.p.; every other day
# Experimental: as §1, §2
# After successfully establishing a humanized PD-1 subcutaneous xenograft tumor model of colorectal carcinoma MC38 in mice, they were randomly grouped with 8 mice per group and administered once every two days.
# [3] = test system: colorectal carcinoma MC38; assay: Example 3: xenograft tumor model of colorectal carcinoma MC38, RB0005 and different doses of 2′,3′-cGAMP; format: in vivo, mouse; settings: single drug i.t.: RB0005 1 mg/kg; 2′,3′-cGAMP 1, 3.16, 10 mg/kg
# Experimental: as §1, §2
# After successfully establishing a subcutaneous xenograft tumor model in mice, they were randomly grouped with 8 mice per group and administered once every two days.
# [4] = test system: colorectal carcinoma MC38; assay: Example 5: humanized CD274 cell subcutaneous xenograft tumor model of colorectal carcinoma MC38, routes and dosage forms; format: in vivo, mouse; settings: every other day, 3 times
# Experimental: as §1, §2, §3
# After successfully establishing a humanized CD274 cell subcutaneous xenograft tumor model of colorectal carcinoma MC38 in mice, they were randomly grouped with 6-8 mice per group and administered once every two days, a total of 3 times.
# [5] = test system: colorectal carcinoma MC38; assay: Example 6: humanized PD-1 subcutaneous xenograft tumor model of colorectal carcinoma MC38, RB0004 and 2′,3′-cGAMP single dosage form; format: in vivo, mouse; settings: intratumor injection; RB0004 10 mg/kg, 2′,3′-cGAMP 1 mg/kg; every other day, 3 times
# Experimental: as §1, §2, §3
# (§4) After successfully establishing a humanized PD-1 subcutaneous xenograft tumor model of colorectal carcinoma MC38 in mice, they were randomly grouped with 6-8 mice per group and administered once every two days, a total of 3 times.
# [6] = test system: colorectal carcinoma MC38; assay: Example 7.2.1: MC38 subcutaneous xenograft, marketed PD-1 inhibitors and 2′,3′-cGAMP; format: in vivo, mouse; settings: intratumor injection; PD-1 antibody 10 mg/kg, 2′,3′-cGAMP 1 mg/kg; every other day, 3 times
# Experimental: as §1, §2, §3
# (§5) After successfully establishing a subcutaneous xenograft tumor model of colorectal carcinoma MC38 in mice, they were randomly grouped with 6-8 mice per group and administered once every two days, a total of 3 times.
# [7] = test system: colorectal carcinoma MC38; assay: Example 7.2.2: MC38 subcutaneous xenograft, PD-L1 inhibitor Durvalumab and 2′,3′-cGAMP; format: in vivo, mouse; settings: intratumor injection, 1 mg/kg each, every other day, 3 times
# Experimental: as §1, §2, §3, §5
# [8] = test system: colorectal carcinoma MC38; assay: Example 7.2.3: MC38 subcutaneous xenograft, PD-L1 inhibitor Tecentriq or RB0005 and 2′,3′-cGAMP; format: in vivo, mouse; settings: intratumor injection, 1 mg/kg each, every other day, 3 times
# Experimental: as §1, §2, §5
# [9] = test system: colorectal carcinoma MC38; assay: Example 9: MC38 xenograft, 2′,3′-cGAMP administered firstly, RB0005 after 48 hours; format: in vivo, mouse; settings: 2′,3′-cGAMP 1 mg/kg i.t. Day 1, 3, 5; RB0005 1 mg/kg i.p. Day 3, 5, 7
# Experimental: as §1, §2, §3, §4
# breast carcinoma 4T1 = assay: Example 11: humanized CD274 cell subcutaneous xenograft tumor model of breast carcinoma 4T1 in BALBc mice; format: in vivo; settings: intratumor injection, 1 mg/kg each
# Experimental: as §1, §2, §3
# After successfully establishing a humanized CD274 cell subcutaneous xenograft tumor model of breast carcinoma 4T1 in BALBc mice, they were randomly grouped with 6-8 mice per group and administered once every two days, a total of 3 times.
# melanoma B16 = assay: Example 12: humanized PD-1 subcutaneous xenograft tumor model of melanoma B16; format: in vivo, mouse; settings: intratumor injection, RB0004 10 mg/kg, 2′,3′-cGAMP 0.1 mg/kg; for TGI %: day 7
# Experimental: as §1
# After successfully establishing a humanized PD-1 subcutaneous xenograft tumor model of melanoma B16 in mice, they were randomly grouped with 6-8 mice per group and administered once every two days, a total of 3 times.
# lung carcinoma LLC-1 = assay: Example 13: humanized PD-1 subcutaneous xenograft tumor model of lung carcinoma LLC-1; format: in vivo, mouse; settings: intratumor injection; RB0004 10 mg/kg, 2′,3′-cGAMP 0.1 mg/kg; every other day, 3 times
# Experimental: as §1, §3
# After successfully establishing a humanized PD-1 subcutaneous xenograft tumor model of lung carcinoma LLC-1 in mice, they were randomly grouped with 6-8 mice per group and administered once every two days, a total of 3 times.
compound,measurement,setting,value
"Nc1nc2c(ncn2[C@@H]2O[C@@H]3COP(=O)(O)O[C@H]4[C@@H](O)[C@H](n5cnc6c(N)ncnc65)O[C@@H]4COP(=O)(O)O[C@@H]2[C@@H]3O)c(=O)[nH]1 [2′,3′-cGAMP]",inhibition of tumor growth,"[1]; i.t. 1 mg/kg, anatomical tumor weight vs negative control P<0.01, P<0.001",can significantly inhibit the growth of tumor
same,survival rates of mice at the endpoint of the experiment,"[1]; intratumor injection, 1 mg/kg each drug, every other day, 3 times, death = tumor volume >2000 mm^3",75%
same,inhibition of tumor growth,[2],can inhibit the growth of tumor
same,inhibition of tumor growth,[3],can inhibit the growth of tumor
same,Tumor Weight,"[4]; intraperitoneal injection, 1 mg/kg (each)",3.48 g
same,Tumor Weight,"[4]; intratumor injection, 1 mg/kg each",1.84 g
same,Tumor Weight,[5],0.84 g
same,Tumor Weight,[6],0.98 g
same,Tumor Weight,[7],1.74 g
same,Tumor Weight,[8],0.9 g
same,Tumor Weight,[9],1.30 g
same,survival rate at the endpoint of the experiment,breast carcinoma 4T1,66.7%
same,Tumor Weight,"breast carcinoma 4T1; every other day, 3 times",0.63 g
same,Day 7-Tumor volume (mm^3),melanoma B16,578.8 mm^3
same,TGI %,melanoma B16,59.0%
same,TGI %,melanoma B16; listed as cGAMP,59%
same,TGI %,lung carcinoma LLC-1,47%
"Durvalumab: marketed PD-L1 inhibitor, anti PD-L1 antibody",IRTW % (tumor weight inhibitory rate),[7],27.7%
same,Tumor Weight,[7],2.42 g
Sintilimab: marketed PD-1 monoclonal antibody [reference compound],IRTW % (tumor weight inhibitory rate),[6],3.9%
same,Tumor Weight,[6],1.47 g
Tecentriq: marketed PD-L1 inhibitor,IRTW % (tumor weight inhibitory rate),[8],62.4%
same,Tumor Weight,[8],0.7 g
"Toripalimab: marketed PD-1 monoclonal antibody; G9 of Example 7.2.1, called TERRE in b443 [reference compound]",IRTW % (tumor weight inhibitory rate),[6],49.7%
same,Tumor Weight,[6],0.92 g
